Test results from the Bradley open melting point set (2014).

| melting point [°C] | Structure (SMILES) |
| --- | --- |
| 165 | COc1ccc(/C=C/c2cccc(OC)c2O)cc1OC [2-[(E)-2-(3,4-Dimethoxyphenyl)vinyl]-6-methoxyphenol] |
| 208 | CC(=O)Nc1ccccc1O [2-acetamidophenol] |
| 121 | CC(=O)c1sc(-c2ccccc2)cc1N [2-acetyl-3-amino-5-phenylthiophene] |
| 86 | CC(=O)c1sccc1N [2-acetyl-3-aminothiophene] |
| 116 | CC(=O)c1ccccc1C(=O)O [2-acetylbenzoic_acid] |
| 9 | CC(=O)c1ccccn1 [2-acetylpyridine] |
| 26 | CC(C)(N)CO [2-amino-2-methyl-1-propanol] |
| 104 | Nc1ncc(Br)cc1Br [2-amino-3,5-dibromopyridine] |
| 155 | Nc1c(C(=O)O)cccc1C(F)(F)F [2-amino-3-(trifluoromethyl)benzoic acid] |
| 144 | Nc1cc([N+](=O)[O-])ccc1O [2-amino-4-nitrophenol] [listing 1 of 2 here] |
| 143 | Nc1cc([N+](=O)[O-])ccc1O [2-amino-4-nitrophenol] [listing 2 of 2 here] |
| 92 | Cc1cc(Br)cnc1N [2-amino-5-bromo-3-methylpyridine] |
| 233 | Nc1ncc(Br)cn1 [2-amino-5-bromopyrimidine] |
| 214 | Nc1nnc(C2CC2)s1 [2-amino-5-cyclopropyl-1,3,4-thiadiazole] |
| 128 | Nc1ccc(I)cn1 [2-amino-5-iodopyridine] |
| 83 | Nc1ccccc1CO [2-aminobenzyl alcohol] |
| 92 | Oc1ccc(OCc2ccccc2)nc1 [2-benzyloxy-5-hydroxypyridine] |
| 97 | O=C(O)Cc1ccccc1OCc1ccccc1 [2-benzyloxyphenylacetic acid] |
| 49 | OCc1ccccc1-c1ccccc1 [2-biphenylmethanol] |
| 16 | Cc1ccc(O)c(Br)c1 [2-bromo-4-methylphenol] |

| melting point [°C] | Structure (SMILES) |
| --- | --- |
| 145 | O=[N+]([O-])c1cc[n+]([O-])c(Br)c1 [2-bromo-4-nitropyridine n-oxide] |
| 154 | O=C(O)c1cc(Cl)ccc1Br [2-bromo-5-chlorobenzoic acid] |
| 10 | Cc1ccc(C)c(Br)c1 [2-bromo-p-xylene] |
| -115 | CC=C(C)Br [2-bromo-trans-2-butene] |
| 3 | COc1ccccc1Br [2-bromoanisole] |
| 161 | NC(=O)c1ccccc1Br [2-bromobenzamide] |
| 109 | OB(O)c1ccccc1Br [2-bromobenzeneboronic acid] |
| 55 | N#Cc1ccccc1Br [2-bromobenzonitrile] |
| 49 | N#CCOc1ccccc1Br [2-bromophenoxyacetonitrile] |
| -87 | C=C(C)Br [2-bromopropene] |
| 299 | O=C(O)c1ccc(C(=O)O)c(Br)c1 [2-bromoterephthalic acid] |
| -32 | CC#CC [2-butyne] |
| 125 | O=S(=O)(Nc1ccccc1Cl)c1ccccc1 [2-chloro-1-phenylsulfonamidobenzene] |
| -73 | CCC(C)(C)Cl [2-chloro-2-methylbutane] |
| 195 | COc1ccc(/C=C/C(=O)O)c(Cl)c1OC [2-chloro-3,4-dimethoxycinnamic acid] |
| 58 | N#CCc1cccc(C(F)(F)F)c1Cl [2-chloro-3-(trifluoromethyl)phenylacetonitrile] |
| 177 | O=[N+]([O-])c1cc[n+]([O-])c(Cl)c1F [2-chloro-3-fluoro-4-nitropyridine n-oxide] |
| 184 | O=C(O)c1cccc([N+](=O)[O-])c1Cl [2-chloro-3-nitrobenzoic acid] |
| 145 | O=[N+]([O-])c1ccc(-c2ccc([N+](=O)[O-])cc2Cl)cc1 [2-chloro-4,4'-dinitrobiphenyl] |
| 200 | Cc1ccc(B(O)O)c(Cl)c1 [2-chloro-4-methylbenzeneboronic acid] |

| melting point [°C] | Structure (SMILES) |
| --- | --- |
| 39 | N#Cc1cc(C(F)(F)F)ccc1Cl [2-chloro-5-(trifluoromethyl)benzonitrile] |
| 159 | O=C(O)c1cc(I)ccc1Cl [2-chloro-5-iodobenzoic acid] |
| 71 | O=Cc1cc([N+](=O)[O-])ccc1Cl [2-chloro-5-nitrobenzaldehyde] |
| 166 | O=C(O)c1cc([N+](=O)[O-])ccc1Cl [2-chloro-5-nitrobenzoic acid] |
| 27 | Cc1ccc(F)c(C=O)c1Cl [2-chloro-6-fluoro-3-methylbenzaldehyde] |
| 126 | ON=Cc1c(F)cccc1Cl [2-chloro-6-fluorobenzaldoxime] |
| 2 | Cc1cccc(Cl)c1N [2-chloro-6-methylaniline] |
| 65 | Nc1c(Cl)cc(C(F)(F)F)cc1[N+](=O)[O-] [2-chloro-6-nitro-4-(trifluoromethyl)aniline] |
| 10 | O=Cc1ccccc1Cl [2-chlorobenzaldehyde] |
| 32 | Clc1nc2ccccc2s1 [2-chlorobenzothiazole] |
| -6 | FC(F)(F)c1ccccc1Cl [2-chlorobenzotrifluoride] |
| 83 | O=C(O)C(O)c1ccccc1Cl (stereo not drawn) [2-chloromandelic acid] |
| 150 | O=C(O)COc1ccccc1Cl [2-chlorophenoxyacetic acid] |
| 94 | N#Cc1ccccc1O [2-cyanophenol] |
| -53 | O=C1C=CCCC1 [2-cyclohexen-1-one] |
| 3 | CCCCCCCCC(C)=O [2-decanone] |
| 191 | O=C(O)c1c(P(c2ccccc2)c2ccccc2)ccc2ccccc12 [2-diphenylphosphino-1-naphthoic acid] |
| 21 | CCCCCCCCCCC(C)=O [2-dodecanone] |
| 29 | CCOc1cc(C)ccc1O [2-ethoxy-4-methylphenol] |
| 100 | CCOc1ccccc1B(O)O [2-ethoxybenzeneboronic acid] |

| Structure (SMILES) | melting point [°C] |
| --- | --- |
| CC(=O)Nc1ccccc1C(=O)O [2-acetamidobenzoic acid] | 186 |
| O=C1c2ccccc2CC1Br (stereo not drawn) [2-bromo-1-indanone] | 38 |
| CC(C)(F)C(Br)C(=O)O (stereo not drawn) [2-bromo-3-fluoroisovaleric acid] | 54 |
| CCCC(C)Br (stereo not drawn) [2-bromopentane] | -96 |
| Oc1ccccc1Br [2-bromophenol] [listing 1 of 2 here] | 5.6 |
| Oc1ccccc1Br [2-bromophenol] [listing 2 of 2 here] | 5 |
| CCC(C)=O [2-butanone] | -86 |
| CCc1cccc(CC)c1NC(=O)CCl [2-chloro-2',6'-diethylacetanilide] | 130 |
| O=C(CCl)c1ccc(O)c(O)c1 [2-chloro-3',4'-dihydroxyacetophenone] | 174 |
| N#Cc1ccccc1Cl [2-chlorobenzonitrile] | 45 |
| Clc1ccccc1C(Cl)(Cl)Cl [2-chlorobenzotrichloride] | 30 |
| Oc1ccc(O)c(Cl)c1 [2-chlorohydroquinone] | 102 |
| CCOCCOC(C)=O [2-ethoxyethyl_acetate] | -61 |
